These compounds were tested on IRF3 (assay: IRF3 activation assay in THP-1 Dual cells). Conditions: Homo sapiens, THP-1, Table 4C; read-out: THP1 IRF3 EC50.
Type: cell-based
Method in brief: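 THP-1 Dual cells (100,000/well) were treated with serially diluted compound for 24 h at 37° C, 5% CO2. IRF3 reporter activity in supernatant was read with QUANTI-Blue as absorbance at 620-655 nm after 2 h, with untreated cells as negative control. EC50 came from fitting percent control activity against log concentration.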
`CCn1nc(C)cc1C(=O)Nc1nc2cc(C(N)=O)cc(OC)c2n1C/C=C/Cn1c2nc(-c3cc(C)nn3CC)ncc2c2cc(C(N)=O)cc(OCCCNC(=O)CCCC(=O)O)c21` [Example S51, (E)-5-(3-(6-carbamoyl-9-(4-(5-carbamoyl-2-(1-ethyl-3-methyl-1H-pyrazole-5-carboxamido)-7-methoxy-1H-benzo[d]imidazol-1-yl)but-2-enyl)-2-(1-ethyl-3-methyl-1H-pyrazol-5-yl)-9H-pyrimido[4,5-b]indol-8-yloxy)propylamino)-5-oxopentanoic acid] was tested, and the EC50 was ≤ 50 nM.
For `CCn1nc(C)cc1C(=O)Nc1nc2cc(C(N)=O)cc(OC)c2n1C/C=C/Cn1c2nc(-c3cc(C)nn3CC)ncc2c2cc(C(N)=O)cc(OCCCNC(=O)OCCC(=O)O)c21` [Example S52, (E)-3-(3-(6-carbamoyl-9-(4-(5-carbamoyl-2-(1-ethyl-3-methyl-1H-pyrazole-5-carboxamido)-7-methoxy-1H-benzo[d]imidazol-1-yl)but-2-enyl)-2-(1-ethyl-3-methyl-1H-pyrazol-5-yl)-9H-pyrimido[4,5-b]indol-8-yloxy)propylcarbamoyloxy)propanoic acid], the EC50 was ≤ 50 nM.
With `CCn1nc(C)cc1C(=O)Nc1nc2cc(C(N)=O)cc(OCCCO)c2n1C/C=C/Cn1c2nc(-c3cc(C)nn3CC)ncc2c2cc(C(N)=O)cc(OCCCNC(=O)CCCC(=O)O)c21` [Example S53, (E)-5-(3-(6-carbamoyl-9-(4-(5-carbamoyl-2-(1-ethyl-3-methyl-1H-pyrazole-5-carboxamido)-7-(3-hydroxypropoxy)-1H-benzo[d]imidazol-1-yl)but-2-enyl)-2-(1-ethyl-3-methyl-1H-pyrazol-5-yl)-9H-pyrimido[4,5-b]indol-8-yloxy)propylamino)-5-oxopentanoic acid] the EC50 was ≤ 50 nM.
For `CCn1nc(C)cc1C(=O)Nc1nc2cc(C(N)=O)cc(OCCCO)c2n1C/C=C/Cn1c2nc(-c3cc(C)nn3CC)ncc2c2cc(C(N)=O)cc(OCCCNC(=O)OCCC(=O)O)c21` [Example S54, (E)-3-(3-(6-carbamoyl-9-(4-(5-carbamoyl-2-(1-ethyl-3-methyl-1H-pyrazole-5-carboxamido)-7-(3-hydroxypropoxy)-1H-benzo[d]imidazol-1-yl)but-2-enyl)-2-(1-ethyl-3-methyl-1H-pyrazol-5-yl)-9H-pyrimido[4,5-b]indol-8-yloxy)propylcarbamoyloxy)propanoic acid], the EC50 was ≤ 50 nM.
For `CCn1nc(C)cc1C(=O)Nc1nc2cc(C(N)=O)cc(OCCCOC)c2n1C/C=C/Cn1c2nc(-c3cc(C)nn3CC)ncc2c2cc(C(N)=O)cc(OCCCNC(=O)CCCC(=O)O)c21` [Example S55, (E)-5-(3-(6-carbamoyl-9-(4-(5-carbamoyl-2-(1-ethyl-3-methyl-1H-pyrazole-5-carboxamido)-7-(3-methoxypropoxy)-1H-benzo[d]imidazol-1-yl)but-2-enyl)-2-(1-ethyl-3-methyl-1H-pyrazol-5-yl)-9H-pyrimido[4,5-b]indol-8-yloxy)propylamino)-5-oxopentanoic acid], the EC50 was ≤ 50 nM.
In the case of `CCn1nc(C)cc1C(=O)Nc1nc2cc(C(N)=O)cc(OCCCOC)c2n1C/C=C/Cn1c2nc(-c3cc(C)nn3CC)ncc2c2cc(C(N)=O)cc(OCCCNC(=O)OCCC(=O)O)c21` [Example S56, (E)-3-(3-(6-carbamoyl-9-(4-(5-carbamoyl-2-(1-ethyl-3-methyl-1H-pyrazole-5-carboxamido)-7-(3-methoxypropoxy)-1H-benzo[d]imidazol-1-yl)but-2-enyl)-2-(1-ethyl-3-methyl-1H-pyrazol-5-yl)-9H-pyrimido[4,5-b]indol-8-yloxy)propylcarbamoyloxy)propanoic acid], the EC50 is reported as ≤ 50 nM.
An EC50 of 50 to 200 nM was found for `CCn1nc(C)cc1C(=O)Nc1nc2cc(C(N)=O)cc(OCCCOC)c2n1C/C=C/Cn1c2nc(-c3cc(C)nn3CC)ncc2c2cc(C(N)=O)cc(OCCCOC(=O)NCCC(=O)O)c21` [Example S57, (E)-3-((3-(6-carbamoyl-9-(4-(5-carbamoyl-2-(1-ethyl-3-methyl-1H-pyrazole-5-carboxamido)-7-(3-methoxypropoxy)-1H-benzo[d]imidazol-1-yl)but-2-enyl)-2-(1-ethyl-3-methyl-1H-pyrazol-5-yl)-9H-pyrimido[4,5-b]indol-8-yloxy)propoxy)carbonylamino)propanoic acid] in this work.
An EC50 of 50 to 200 nM was found for `CCn1nc(C)cc1C(=O)Nc1nc2cc(C(N)=O)cc(OCCCOC)c2n1C/C=C/Cn1c2nc(-c3cc(C)nn3CC)ncc2c2cc(C(N)=O)cc(OCCOCCOCCC(=O)O)c21` [Example S58, (E)-3-(2-(2-(6-carbamoyl-9-(4-(5-carbamoyl-2-(1-ethyl-3-methyl-1H-pyrazole-5-carboxamido)-7-(3-methoxypropoxy)-1H-benzo[d]imidazol-1-yl)but-2-enyl)-2-(1-ethyl-3-methyl-1H-pyrazol-5-yl)-9H-pyrimido[4,5-b]indol-8-yloxy)ethoxy)ethoxy)propanoic acid] in this work.
An EC50 of 50 to 200 nM was found for `CCn1nc(C)cc1C(=O)Nc1nc2cc(C(N)=O)cc(OCCCOC)c2n1C/C=C/Cn1c2nc(-c3cc(C)nn3CC)ncc2c2cc(C(N)=O)cc(OCCOCCOCCOCCC(=O)O)c21` [Example S59, (E)-3-(2-(2-(2-(6-carbamoyl-9-(4-(5-carbamoyl-2-(1-ethyl-3-methyl-1H-pyrazole-5-carboxamido)-7-(3-methoxypropoxy)-1H-benzo[d]imidazol-1-yl)but-2-enyl)-2-(1-ethyl-3-methyl-1H-pyrazol-5-yl)-9H-pyrimido[4,5-b]indol-8-yloxy)ethoxy)ethoxy)ethoxy)propanoic acid] in this work.
An EC50 of 50 to 200 nM was found for `CCn1nc(C)cc1C(=O)Nc1nc2cc(C(N)=O)cc(OC)c2n1C/C=C/Cn1c2nc(-c3cc(C)nn3CC)ncc2c2cc(C(N)=O)cc(OCCC3CCN(CCCC(=O)O)CC3)c21` [Example S60, (E)-4-(4-(2-(6-carbamoyl-9-(4-(5-carbamoyl-2-(1-ethyl-3-methyl-1H-pyrazole-5-carboxamido)-7-methoxy-1H-benzo[d]imidazol-1-yl)but-2-enyl)-2-(1-ethyl-3-methyl-1H-pyrazol-5-yl)-9H-pyrimido[4,5-b]indol-8-yloxy)ethyl)piperidin-1-yl)butanoic acid] in this work.
An EC50 of 50 to 200 nM was found for `CCn1nc(C)cc1C(=O)Nc1nc2cc(C(N)=O)cc(OC)c2n1C/C=C/Cn1c2nc(-c3cc(C)nn3CC)ncc2c2cc(C(N)=O)cc(OCCC3CCN(C(=O)OCC(=O)O)CC3)c21` [Example S61] in this work.
An EC50 of 50 to 200 nM was found for `CCn1nc(C)cc1C(=O)Nc1nc2cc(C(N)=O)cc(OCCCO)c2n1C/C=C/Cn1c2nc(-c3cc(C)nn3CC)ncc2c2cc(C(N)=O)cc(OCCCOC(=O)NCCC(=O)O)c21` [Example S62, (E)-3-((3-(6-carbamoyl-9-(4-(5-carbamoyl-2-(1-ethyl-3-methyl-1H-pyrazole-5-carboxamido)-7-(3-hydroxypropoxy)-1H-benzo[d]imidazol-1-yl)but-2-enyl)-2-(1-ethyl-3-methyl-1H-pyrazol-5-yl)-9H-pyrimido[4,5-b]indol-8-yloxy)propoxy)carbonylamino)propanoic acid] in this work.
An EC50 of 200 to 500 nM was found for `CCn1nc(C)cc1C(=O)Nc1nc2cc(C(N)=O)cc(OCCCOC(=O)NCCC(=O)O)c2n1C/C=C/Cn1c2nc(-c3cc(C)nn3CC)ncc2c2cc(C(N)=O)cc(OCCOCCOCCC(=O)O)c21` [Example S63, (E)-3-(((3-((5-carbamoyl-1-(4-(6-carbamoyl-8-(2-(2-(2-carboxyethoxy)ethoxy)ethoxy)-2-(1-ethyl-3-methyl-1H-pyrazol-5-yl)-9H-pyrimido[4,5-b]indol-9-yl)but-2-en-1-yl)-2-(1-ethyl-3-methyl-1H-pyrazole-5-carboxamido)-1H-benzo[d]imidazol-7-yl)oxy)propoxy)carbonyl)amino)propanoic acid] in this work.

— US11596692B1 (Incyte Corporation, priority 2018, dated 2023)
